Results: patent US5091397A (priority 1988, dated 1992)
Where a name gives a salt, the structure may show the parent alone. Read-outs that look alike come from different tables or passages of the source.

Key:
muscarinic receptors [1] = assay: Radio ligand binding: displacement of the muscarinic agonist 3H-Oxotremorine-M (3H-OXO-M) from cerebral cortex membranes; parameters: species or system Hooded Lister rats; settings: displacement of muscarinic agonist 3H-OXO-M (2nM), rat cerebral cortex, 2mM magnesium chloride, 37° C., 30 min
muscarinic receptors [2] = type: binding, Hooded Lister rats; settings: displacement of muscarinic antagonist 3H-QNB (0.27nM), rat cerebral cortex, 37° C., 30 min

SMILES | IC50 (muscarinic receptors [1]) [µM] | IC50 (muscarinic receptors [2]) [µM]
Nc1noc(CC23CCCN(CC2)C3)n1 (racemic) [Example E4, (±) 5-[(3-Amino-1,2,4-oxadiazol-5-yl)methyl]-1-azabicyclo[3.2.1]octane] | 0.58 | 6.7
c1coc(CC2CN3CCC2CC3)n1 (racemic) [Example E3, (±) 3-(1,3-Oxazol-2-yl)methyl]-1-azabicyclo[2.2.2]octane oxalate salt] | 0.755 | 7
c1csc(CC2CN3CCC2CC3)n1 (racemic) [Example E17, (±) 3-((1,3-Thiazol-2-yl)methyl)-1-azabicyclo[2.2.2]octane oxalate salt] | 0.875 | –
c1ncc(C[C@H]2CN3CC[C@@H]2C3)o1 (relative stereo) [Example E8, (±) endo 3-(1,3-Oxazol-5-yl)methyl-1-azabicyclo[2.2.1]heptane hydrochloride salt] | 0.625 | 38
Nc1noc(C[C@H]2CN3CC[C@@H]2C3)n1 (relative stereo) [Example E5, (±) endo 3-[(3-Amino-1,2,4-oxadiazol-5-yl)methyl]-1-azabicyclo[2.2.1]heptane] | 0.032 | 21
c1coc(CC23CCN(CC2)C3)n1 [Example E14, 4-[(1,3-Oxazol-2-yl)methyl]-1-azabicyclo[2.2.1]heptane oxalate salt] | 0.41 | 74
Nc1noc(C[C@@H]2CN3CC[C@@H]2C3)n1 (relative stereo) [Example E1, (±) exo 3-[(3-Amino-1,2,4-oxadiazol-5-yl)methyl]-1-azabicyclo[2.2.1]heptane] | 0.0365 | 7.5
Cc1nc(C[C@H]2CN3CC[C@@H]2C3)no1 (relative stereo) [Example E15, (±) endo 3-[(5-Methyl-1,2,4-oxadiazol-3-yl)methyl-1-azabicyclo[2.2.11]heptane hydrochloride salt] | 0.95 | 30.5
c1coc(CC23CCCN(CC2)C3)c1 (racemic) [Example E12, (±) 5-[(Fur-2-yl)methyl-1-azabicyclo[3.2.1]octane oxalate salt] | 0.66 | 4
Nc1noc(C[C@@H]2C[C@@H]3CCN(C2)C3)n1 (relative stereo) [Example E9, (±) endo 3-[(3-Amino-1,2,4-oxadiazol-5-yl)methyl]-1-azabicyclo[3.2.1]octane] | 0.925 | 4.6
c1coc(C[C@@H]2CN3CC[C@@H]2C3)n1 (relative stereo) [Example E10, (±) exo 3-(1,3-Oxazo1-2-yl)methyl-1-azabicyclo [2.2.1]heptane oxalate salt] | 0.038 | 5.6
c1coc(C[C@H]2CN3CC[C@@H]2C3)n1 (relative stereo) [Example E7, (±) endo 3-(1,3-Oxazol-2-yl)methyl]-1-azabicyclo[2.2.1]heptane oxalate salt] | 0.042 | 8
Cc1nc(C[C@@H]2CN3CC[C@@H]2C3)no1 (relative stereo) [Example E16, (±) exo 3-[(5-Methyl-1,2,4-oxadiazol-3-yl)methyl)-1-azabicyclo[2.2.1]heptane hydrochloride salt] | 1 | –
Cn1nnc(C[C@H]2CN3CC[C@@H]2C3)n1 (relative stereo) [Example E11, (±) endo 3-[(2-Methyltetrazol-5-yl)methyl]-1-azabicyclo[2.2.11]heptane oxalate salt] | 0.34 | 8
Cc1noc(C[C@H]2CN3CC[C@@H]2C3)n1 (relative stereo) [Example E6, (±) endo 3-(3-Methyl-1,2.4-oxadiazol-5-yl)methyl-1-azabicyclo[2.2.1]heptane oxalate salt] | 0.15 | 10.2
Cc1noc(CC2CN3CCC2CC3)n1 (racemic) [Example E2, (±) 3-[(3-Methyl-1,2,4-oxadiazol-5-yl)methyl]-1-azabicyclo[2.2.2]octane hydrochloride salt] | 1.05 | 13
Nc1noc(CC23CCN(CC2)C3)n1 [Example E13, 4-[(3-Amino-1,2,4-oxadiazol-5-yl)methyl]-1-azabicyclo[2.2.1]heptane] | 0.118 | 85
